Results taken from patent US20260176289A1, “SMALL MOLECULE INHIBITORS OF KRAS PROTEINS” (Merck Sharp & Dohme LLC, priority 2022, published 2026).
Read-outs that look alike come from different tables or passages of the source.

Tests used:
KRAS-WT = KRAS-WT (Homo sapiens, UniProt P01116); experiment: SOS-catalyzed nucleotide exchange assay (Procedure A, TR-FRET), KRAS-WT; assay type: biochemical; settings: nucleotide exchange, read-out: KRAS WT GNE IC50
Method in brief: (§1)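 Inhibitors stabilizing the Bodipy-GDP state are detected as retained TR-FRET from a preformed biotinylated RAS/Tb-streptavidin complex. They are preincubated 60 min at room temperature, then human SOS and 3 mM GTP are added. G12V runs 90 min at 1.25 nM RAS/160 nM SOS. G12C (3 nM), WT (1 nM) and NRAS (1.25 nM) run 60 min with 40 nM SOS.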

MKN-1 cells = experiment: Cellular phospho-ERK assay, MKN-1 cells (amplified wild-type KRAS); assay type: cell-based; settings: Homo sapiens, read-out: MKN1 pERK IC50
Procedure: (§2) Procedure for Cellular Phospho-ERK Assay in KRAS Wild Type and Mutant (G12D, G12V) Cell Lines
(§3) MKN-1 cells (JCRB JCRB0252) containing amplified wild-type KRAS, were cultured in growth medium that contains RPMI 1640-GlutaMAX™-I (ThermoFisher Scientific 61870) containing 10% heat inactivated fetal bovine serum (ThermoFisher Scientific 10091148), 1 mM sodium pyruvate and 10 mM HEPES. PANC08.13 cells (ATCC® CRL-2551™), containing homozygous KRAS-G12D activating mutation, were cultured in growth medium made of RPMI1640-GlutaMAX™-I (ThermoFisher Scientific 61870) containing 15% heat inactivated fetal bovine serum (ThermoFisher Scientific 10091148)). AsPC-1 cells (ATCC® CRL-1682™), containing homozygous KRAS-G12D activating mutation, were cultured in T150 flask in growth medium (RPMI medium 1640-GlutaMAX™-I (ThermoFisher Scientific 61870) containing 10% fetal bovine serum (ThermoFisher Scientific 10091148)). SW620 cells (ATCC® […]), containing homozygous KRAS-G12V activating mutation, were cultured in growth medium that contains RPMI 1640-GlutaMAX™-I (ThermoFisher Scientific 61870) containing 10% heat inactivated fetal bovine serum (ThermoFisher Scientific 10091148).
(§4) Cells for the assay were harvested in growth medium after TrypLE (ThermoFisher scientific 12604021) digestion and were seeded in a 384-well collagen coated cell culture plate (Corning 356702) at a density of 10,000-15,000 cells/20 μL/well, and incubated at 37° C., 5% CO2 overnight. The compound (with 10 mM stock concentration) dose-response titrations were prepared [30 μM final ERK detection assay concentration and 1:3 dilutions, 10-point dose response] and appropriate amounts (270 nL) of test compounds were dispensed in a 384-well intermediate plate using an Echo 550 liquid handler. 30 μL/well of RPMI medium 1640-GlutaMAX™—I was added to the intermediate plate and the contents of the intermediate plate (10 μL/well) were then transferred to the 384-well collagen coated cell culture plate, which was incubated at 37° C., 5% CO2 for 2 hours. After removal of medium from the collagen coated cell culture plate, cells were lysed in lysis buffer from Alpha SureFire® Ultra™ Multiplex p-ERK and total ERK assay kit (PerkinElmer MPSU-PTERK) containing Halt™ Protease and Phosphatase inhibitor cocktail (ThermoFisher Scientific 78446) at room temperature with constant shaking at 300 rpm for 30 minutes. The cell lysates were then transferred to an OptiPlate-384 plate (PerkinElmer 6005620), and the phosphorylation of ERK (p-ERK) and total ERK levels were detected by Alpha SureFire® Ultra™ Multiplex p-EEK kit and total ERK assay kit (PerkinElmer MPSU-PTERK) following the manufacturer's protocol. Assay plates were read on a En Vision Multimode Plate Reader (PerkinElmer), and the ratio of p-ERK vs. total ERK in each well was used as the final readout. Dose response curves were analyzed using a 4-parameter logistic model to calculate IC50 values using Spotfire software.

KRAS-G12D = KRAS-G12D (Homo sapiens, UniProt P01116, G12D); experiment: SOS-catalyzed nucleotide exchange assay (Procedure A, TR-FRET), KRAS-G12D; assay type: biochemical; settings: nucleotide exchange, read-out: KRAS G12D GNE IC50
KRAS-G12D, sequence (P01116 with tags, fused parts or gaps isoform P01116-2 G12D): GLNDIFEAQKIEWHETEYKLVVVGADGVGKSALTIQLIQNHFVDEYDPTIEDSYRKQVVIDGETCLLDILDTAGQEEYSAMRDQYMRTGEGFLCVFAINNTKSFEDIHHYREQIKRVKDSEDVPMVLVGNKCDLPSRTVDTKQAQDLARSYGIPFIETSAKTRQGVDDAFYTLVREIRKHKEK
Method in brief: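 Signal ratio (520/495 nm, excitation 340 nm) reports Bodipy-GDP retention on biotinylated RAS after SOS-catalyzed exchange with 3 mM GTP. SOS was 40 nM, except 160 nM for G12V. Room-temperature exchange lasted 60 min (90 min for G12V), following a 60 min compound preincubation.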

SW620 cells = experiment: Cellular phospho-ERK assay, SW620 cells (homozygous KRAS-G12V); assay type: cell-based; settings: Homo sapiens, read-out: SW620 pERK IC50
Procedure: as §2, §3, §4

KRAS-G12V = KRAS-G12V (Homo sapiens, UniProt P01116, G12V); experiment: SOS-catalyzed nucleotide exchange assay (Procedure A, TR-FRET), KRAS-G12V; assay type: biochemical; settings: nucleotide exchange, read-out: KRAS G12V GNE IC50
KRAS-G12V, sequence (P01116 with tags, fused parts or gaps isoform P01116-2 G12V): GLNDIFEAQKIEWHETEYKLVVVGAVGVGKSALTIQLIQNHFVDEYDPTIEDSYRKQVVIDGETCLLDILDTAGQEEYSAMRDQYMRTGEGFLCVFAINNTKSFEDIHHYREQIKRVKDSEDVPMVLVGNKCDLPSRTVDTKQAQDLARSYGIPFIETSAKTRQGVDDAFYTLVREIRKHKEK
Method in brief: as §1

AsPC-1 cells = experiment: Cellular phospho-ERK assay, AsPC-1 cells (homozygous KRAS-G12D); assay type: cell-based; settings: Homo sapiens, ASPC1, 2 h, read-out: AsPC1 pERK IC50
Method in brief: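 p-ERK/total ERK ratio, measured by AlphaLISA SureFire Ultra multiplex in lysates, was fitted to a 4-parameter logistic model for IC50. Compound exposure was 2 h at 37° C, 5% CO2, 10-point 1:3 dilutions from 30 μM final, on cells plated the previous night.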

[1] = amplified wild-type KRAS, 2 hours
[2] = SW-620, 2 hours compound incubation

KRAS-WT, sequence (P01116 with tags, fused parts or gaps isoform P01116-2): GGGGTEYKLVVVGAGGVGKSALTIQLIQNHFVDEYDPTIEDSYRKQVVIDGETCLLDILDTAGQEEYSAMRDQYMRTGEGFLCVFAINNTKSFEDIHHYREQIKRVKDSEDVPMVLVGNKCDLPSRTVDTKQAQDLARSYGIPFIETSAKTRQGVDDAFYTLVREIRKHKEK

Row | IC50 (MKN-1 cells; 2 hours compound incubation) [µM] | IC50 (SW620 cells; [2]) [µM] | IC50 (AsPC-1 cells; 2 hours compound incubation) [µM] | Structure (SMILES) | IC50 (KRAS-WT) [µM] | IC50 (MKN-1 cells; [1]) [µM] | IC50 (KRAS-G12D) [µM] | IC50 (SW620 cells; SW-620, KRAS-G12V, 2 hours) [µM] | IC50 (KRAS-G12V) [µM] | IC50 (AsPC-1 cells; KRAS-G12D, 2 hours) [µM]
1 |  |  |  | Cc1c(C(F)(F)F)c(-c2nccc3c2sc2nc(OC[C@@]45CCCN4C[C@H](F)C5)nc(N4CCOC[C@@](C)(O)C4)c23)c2cn[nH]c2c1F [Ex-44, (6S)-4-(8-(7-fluoro-6-methyl-5-(trifluoromethyl)-1H-indazol-4-yl)-2-(((2R,7aS)-2-fluorotetrahydro-1H-pyrrolizin-7a(5H)-yl)methoxy)pyrido[4′,3′:4,5]thi-eno[2,3-d]pyrimidin-4-yl)-6-methyl-1,4-oxazepan-6-ol] | 0.281 | 0.373 | 0.141 | 0.281 | 0.242 | 0.452
2 |  |  |  | CCC1(F)c2c(cc3[nH]ncc3c2-c2nccc3c2sc2nc(OC[C@@]45CCCN4C[C@H](F)C5)nc(N4CCOC[C@@](C)(O)C4)c23)CC1(F)F (stereo partly drawn) [Ex-98, (6S)-4-(8-(5-ethy1-5,6,6-trifluoro-1,5,6,7-tetrahydrocyclopenta[f]in-dazol-4-yl)-2-(((2R,7aS)-2-fluorotetrahydro-1H-pyrrolizin-7a(5H)-yl)methoxy)pyrido[4′,3′:4,5]thi-eno[2,3-d]pyrimidin-4-yl)-6-methyl-1,4-oxazepan-6-ol] | 0.0613 | 0.0728 | 0.0189 | 0.0688 | 0.0208 | 0.175
3 |  |  |  | C[C@@]1(O)COCCN(c2nc(OC[C@@]34CCCN3C[C@H](F)C4)nc3c(Cl)c4c(-c5c(C6CC6)c(Cl)cc6[nH]ncc56)nccn4c23)C1 (single isomer, unassigned) [Ex-300] | 0.0144 | 0.0546 | 0.00653 | 0.0398 | 0.00843 | 0.222
4 | 0.324 | 0.278 | 0.856 | C#C[C@@H]1CCCc2cc3[nH]ncc3c(-c3nccc4c3sc3nc(OC[C@@]56CCCN5C[C@H](F)C6)nc(N5CCOC[C@@](C)(O)C5)c34)c21 [Ex-175] | 0.186 |  | 0.0821 |  | 0.0663 | 
5 | 0.0901 | 0.0845 | 0.182 | CN(C)C1COC2C[C@@]21COc1nc(N2CCOC[C@@](C)(O)C2)c2c(n1)sc1c(-c3c(C4(F)CC4)c(Cl)cc4[nH]ncc34)nccc12 (stereo partly drawn) [Ex-269, (6S)-4-(8-(6-chloro-5-(1-fluorocyclopropyl)-1H-indazol-4-yl)-2-((4-(dimethylamino)-2-oxabicyclo[3.1.0]hexan-5-yl)methoxy)pyri-do[4′,3′:4,5]thi-eno[2,3-d]pyrimidin-4-yl)-6-methyl-1,4-oxazepan-6-ol] | 0.0249 |  | 0.00813 |  | 0.02 | 
6 |  |  |  | C[C@@]1(O)COCCN(c2nc(OC[C@@]34CCCN3C[C@H](F)C4)nc3sc4c(-c5c6c(cc7[nH]ncc57)CCC65CC5)nccc4c23)C1 [Ex-88, (6S)-4-(8-(6,7-dihydro-1H-spiro[cyclopenta[f]indazole-5,1′-cyclopropan]-4-yl)-2-(((2R,7aS)-2-fluorotetrahydro-1H-pyrrolizin-7a(5H)-yl)methoxy)pyrido[4′,3′:4,5]thi-eno[2,3-d]pyrimidin-4-yl)-6-methyl-1,4-oxazepan-6-ol] | 0.0372 | 0.122 | 0.0185 | 0.0361 | 0.0425 | 0.159
7 | 0.0807 | 0.0794 | 0.175 | C[C@@]1(O)COCCN(c2nc(OC[C@@]34CCN3C[C@H](F)C4)nc3sc4c(-c5c(C6CC6)c(Cl)cc6[nH]ncc56)nccc4c23)C1 (single isomer, unassigned) [Ex-221] | 0.0228 |  | 0.00555 |  | 0.0212 | 
8 | 0.319 | 0.23 | 0.305 | C[C@@]1(O)COCCN(c2nc(OC[C@@]34C[C@H](F)CN3CC3(CC3)C4)nc3sc4c(-c5c(C6CC6)c(Cl)cc6[nH]ncc56)nccc4c23)C1 [Ex-219, (6S)-4-(8-(6-chloro-5-cyclopropyl-1H-indazol-fluoro-dihydro-1H,3′H-spiro[cyclopropane-1,2′-yl)methoxy)-pyrido[4′,3′:4,5]thieno[2,3-d]pyr-imidin-4-yl)-6-methyl-1,4-oxaze-pan-6-ol] | 0.255 |  | 0.0827 |  | 0.196 | 
9 |  |  |  | Cc1cc2[nH]ncc2c(-c2nccc3c2sc2nc(OC[C@@]45CCCN4C[C@H](F)C5)nc(N4CCOC[C@@](C)(O)C4)c23)c1[C@@H]1C[C@H]1C (atropisomer, axis not shown; (aS)) [Ex-67, (S)-4-((R)-2-(((2R,7aS)-2-fluorotetrahydro-1H-pyrrolizin-7a(5H)-yl)methoxy)-8-(6-methyl-5-((1R,2R)-2-methylcyclopropyl)-1H-indazol-4-yl)pyrido[4′,3′:4,5]thieno [2,3-d]pyrimidin-4-yl)-6-methyl-1,4-oxazepan-6-o1] | 0.04 | 0.186 | 0.0119 | 0.323 | 0.0231 | 0.113
10 |  |  |  | C[C@@H]1CCCc2cc3[nH]ncc3c(-c3nccc4c3sc3nc(OC[C@@]56CCCN5C[C@H](F)C6)nc(N5CCOC[C@@](C)(O)C5)c34)c21 [Ex-116] | 0.00984 | 0.0464 | 0.00487 | 0.0364 | 0.0179 | 0.0566
11 |  |  |  | C=C1CCCc2cc3[nH]ncc3c(-c3nccc4c3sc3nc(OC[C@@]56CCCN5C[C@H](F)C6)nc(N5CCOC[C@@](C)(O)C5)c34)c21 [Ex-115, (6S)-4-(2-(((2R,7aS)-2-fluorotetrahydro-1H-pyrrolizin-7a(5H)-yl)methoxy)-8-(5-methylene-5,6,7,8-tetrahydro-1H-benzo[f]indazol-4-yl)pyrido[4′,3′:4,5]thieno [2,3-d]pyrimidin-4-yl)-6-methyl-1,4-oxazepan-6-ol] | 0.0108 | 0.0246 | 0.00398 | 0.0189 | 0.0132 | 0.0466
12 | 0.0469 | 0.0109 | 0.0477 | CN1CCC[C@@]2(COc3nc(N4CCOC[C@@](C)(O)C4)c4c(n3)sc3c(-c5c(C6CC6)c(Cl)cc6[nH]ncc56)nccc34)CCC[C@@H]12 [Ex-217, (6S)-4-(8-(6-chloro-5-cyclopropyl-1H-indazol-4-yl)-2-(((4aS,7aR)-1-meth-yloctahydro-4aH-cyclopenta[b]pyridin-4a-yl)meth-oxy)pyrido[4′,3′:4,5]thieno[2,3-d]pyrimi-din-4-yl)-6-methyl-1,4-oxazepan-6-ol] | 0.00885 |  | 0.00346 |  | 0.0131 | 
